Experimental data taken from patent US11202789B2, “Method of treating glycogen storage disease” (Viking Therapeutics, Inc., priority 2016, dated 2021).

What was measured:
Assay type in all cases: in vivo
[1] = test system: male diet-induced obese (DIO) C57Bl/6 mice; test: 2, 5 and 10 week study in mouse model of diet-induced obesity
Protocol: Objectives: The objectives of this study were to evaluate the effects of 2, 5 and 10 weeks of Compound 2 treatment at doses of 10 and 30 mg/kg/day on total plasma cholesterol levels, blood glucose levels, and hepatic steatosis in a mouse model of diet-induced obesity.
Methods: Male C57Bl/6 mice (4 weeks old) were fed a high-fat diet (60% fat by kcal) for 88 days to induce obesity, hyperlipidemia, and mild hyperglycemia prior to initiation of the study. For the study, 3 groups of mice (n=24-28) were dosed daily by gavage with 10 or 30 mg/kg of Compound 2 or vehicle (0.1% carboxymethylcellulose) and maintained on the same high-fat diet. During treatment, body weight, total plasma cholesterol levels, and blood glucose levels of the animals were measured weekly. Subsets of animals (n=6-12; 30 mg/kg/day) were sacrificed prior to treatment and after 2, 5 and 10 weeks of treatment for analysis of liver weights, liver triglyceride levels and liver histology.

male ob/ob mice = test: 9-week efficacy and safety study in male ob/ob mice; details: for total plasma cholesterol levels lower: after 9 weeks; for liver triglyceride levels lower: at 9 weeks
Protocol: The objective of this study was to evaluate the efficacy and safety of Compound 2 treatment at doses of 3, 10, and 30 mg/kg/day for 9 weeks in male ob/ob mice. 3,3′,5-Triiodo-L-thyronine (T3) was used as a comparator in this study.
Methods: Seventy-eight adult male ob/ob mice were assigned to six different treatment groups (n=6-24/group). Animals were dosed daily with either vehicle [1% carboxymethylcellulose (CMC) in water, PO], T3 [(100 nmole/kg/day in aqueous solution, subcutaneous (SC)], or Compound 2 [3, 10 or 30 mg/kg/day in 1% CMC, PO]. Blood glucose and plasma cholesterol were measured weekly in all animals. Subsets of animals in the vehicle-treated and 30 mg/kg/day Compound 2-treated groups were sacrificed after 3, 6 and 9 weeks of treatment to analyze the temporal effects of Compound 2 on liver weight and liver triglyceride levels. Liver triglyceride levels, liver glycogen content, heart, liver and epididymal fat pad weights, and plasma clinical chemistry parameters were measured at sacrifice.

G6PC−/− mice = test: G6pc−/− mouse model of GSD Ia, 4 days of treatment (Example 13)
Protocol: The objective of this study was to determine the ability of Compound 2, a small molecule prodrug of a potent thyroid hormone beta receptor (TBR) agonist, to reduce hepatic steatosis and other metabolic derangements in the glucose-6-phosphatase catalytic subunit knockout (G6pc−/−) mouse model of glycogen storage disease type Ia (GSD Ia).
Mice were treated with Compound 2 or with vehicle, using 4 groups of 6-7 mice: G6pc−/−mice receiving Compound 2, G6pc−/−mice receiving vehicle, Wt mice receiving Compound 2, and WT mice receiving vehicle. Daily injection of 0.1 to 0.2 mL 10% dextrose subcutaneously was initiated at 3 days of age for all mice, and all mice continued to receive daily dextrose injections throughout drug or vehicle treatment. Dextrose was not administered on the day of tissue collection. Mice were treated daily with Compound 2 or with vehicle, respectively, from 5 to 8 days of age. Mice were sacrificed on Day 9, and blood and tissues were collected. The fasting serum glucose and triglycerides, hepatic lipid and glycogen content, and GSD-related cell signaling pathways were examined.

[2] = 10 and 30 mg/kg/day, following 2, 5 and 10 weeks, vs vehicle

Cc1cc(OCP2(=O)OCCC(c3cccc(Cl)c3)O2)cc(C)c1Cc1ccc(O)c(C(C)C)c1 (stereo not shown) [Compound 2]
macrovesicular and microvesicular steatosis (liver histology) ([1]; 30 mg/kg/day, after 2, 5 and 10 weeks, vs vehicle): visually reduced
blood glucose levels lower ([1]; 10 and 30 mg/kg/day by gavage, most time points, vs vehicle): up to 25%
total plasma cholesterol levels decreased ([1]; 10 and 30 mg/kg/day by gavage, week 1 through end of study, vs vehicle): more than 50%
liver weights lower [1, 2]: ~50%
liver-to-body weight ratios lower [1, 2]: ~40%
body weight gain ([1]; 10 and 30 mg/kg/day, up to 10 weeks): tended to reduce
total liver triglyceride content (mg/liver) lower ([1]; 10 and 30 mg/kg/day, weeks 2, 5 and 10, vs vehicle): up to 60%
liver triglyceride concentrations (mg/g liver) ([1]; 10 or 30 mg/kg/day, any time point, vs vehicle): No significant changes
total plasma cholesterol levels lower (male ob/ob mice; 3 mg/kg/day PO, vs vehicle): ~43%
liver glycogen content (male ob/ob mice; 10 mg/kg/day PO, 9 weeks, vs vehicle (FIG. 5)): significantly (p<0.05) higher
total plasma cholesterol levels lower (male ob/ob mice; 10 mg/kg/day PO, vs vehicle): ~42%
liver triglyceride levels lower (male ob/ob mice; 10 mg/kg/day PO, vs vehicle): ~39%
total plasma cholesterol levels lower (male ob/ob mice; 30 mg/kg/day PO, vs vehicle): ~47%
liver triglyceride levels lower (male ob/ob mice; 30 mg/kg/day PO, vs vehicle): ~46%
liver triglyceride levels (male ob/ob mice; 30 mg/kg/day PO, from Week 3 onwards, vs vehicle): lower
terminal liver glycogen levels (male ob/ob mice; Compound 2-treated groups (3, 10, 30 mg/kg/day PO), 9 weeks, vs vehicle): modestly higher or similar
alanine aminotransferase (ALT) levels (male ob/ob mice; all dose groups (3, 10, 30 mg/kg/day PO)): Decreased
terminal liver weights (male ob/ob mice; all dose groups (3, 10, 30 mg/kg/day PO), 9 weeks, vs vehicle): lower
difference in kidney mass as a percentage of total body mass, Compound 2 vs vehicle (G6PC−/− mice; G6pc−/− mice (FIG. 23B)): not significant
mean total liver triglycerides reduced (G6PC−/− mice; G6pc−/− mice, 4 days of drug treatment, vs vehicle-treated controls, p<0.0001): 69.0%
mean serum triglyceride concentration (G6PC−/− mice; G6pc−/− mice, drug treatment (vehicle 729.59 mg/dL)): 336.58 mg/dL
decrease in mean serum triglyceride concentration (G6PC−/− mice; G6pc−/− mice, drug treatment vs vehicle): 54.0%
mean total liver triglycerides (G6PC−/− mice; G6pc−/− mice, following 4 days of drug treatment (vehicle 13.550 mg)): 4.210 mg
blood glucose measurements (G6PC−/− mice; G6pc−/− mice, lower detection limit of the glucometer (FIG. 27)): < 20 mg/dL
mean liver weights (G6PC−/− mice; G6pc−/− mice, treated (control 393.55 mg)): 253.11 mg
mean liver weights reduced (G6PC−/− mice; G6pc−/− mice, treated vs control, p<0.05): over 30%
body mass (G6PC−/− mice; daily treatment from 5 to 8 days of age (FIG. 22)): not affected
kidney mass (G6PC−/− mice; daily treatment from 5 to 8 days of age (FIG. 23)): not affected
liver glycogen concentration (G6PC−/− mice; under the dosing parameters chosen (FIG. 26)): no significant changes
serum glucose concentration (G6PC−/− mice; under the dosing parameters chosen (FIG. 27)): no significant changes
serum triglyceride concentration (G6PC−/− mice; under the dosing parameters chosen (FIG. 28)): no significant changes
